Publication PMC4585737, “Lipoproteins/peptides are sepsis-inducing toxins from bacteria that can be neutralized by synthetic anti-endotoxin peptides” (Scientific Reports, 2015)
Entries after “also recorded” stand apart in the source; their conditions may differ. Where no end group is shown, it is not given here. [ ]: non-standard residue; d: D form.

How the values were obtained:
human mononuclear cells = experiment: TNFα production in human mononuclear cells (MNC) stimulated by LP, LTA or PGN, and its inhibition by SALP; type: cell-based; details: for stimulation of MNC (TNFα induction) compared with LPS / TNFα when adding 100 ng/ml of LP / concentration necessary to induce an observable TNFα secretion: human MNC; for stimulation of MNC (TNFα induction) compared with LPS: 4 h, ELISA
Procedure: The stimulation of MNC was performed as described previously. Briefly, MNC were isolated from heparinized blood of healthy donors by the Hypaque-Ficoll density gradient method. The cell number was equilibrated at 5 × 10^6 cells/ml RPMI 1640 containing 2 mM L-glutamine, 100 U/ml penicillin and 100 μg/ml streptomycin. For stimulation, 200 μl/well MNC were transferred into 96-well culture plates. The stimuli were serially diluted in RPMI 1640 and added to the cultures at 20 μl per well. The cultures were incubated for 4 h at 37 °C under 5% CO2. Cell-free supernatants were collected after centrifugation of the culture plates for 10 min at 400 × g and stored at −20 °C until the determination of the cytokine content. Immunological determination of TNFα in the cell supernatant was performed in a sandwich-ELISA as described earlier (OptEIA; BD, Heidelberg, Germany). TNFα was determined and measured following manufacturer’s instructions and results are the average of two assays.
LP preparations were pre-warmed for 30 min at 37 °C, and added to the cultures at 20 μl per well. In inhibition experiments, different SALP were added directly after LPS/LP/LTA administration.
Since the data of the stimulation of human MNC by the bacterial and synthetic LP was taken over a time period of more than 6 years, the TNFα production lead to considerable variations due to different batches of LP and of Pep19-2.5, and in particular due to variations resulting from blood samples of different donors. Because the main emphasis laid here is the efficiency of the peptide to inhibit the cytokine production, most figures describe the inhibition efficieny of the peptide in %, by presenting the means ± SEM of at least 3 independent experiments. The absolute values of the cytokine production, where of note, is given separately in the text.

human MNCs = details: cited from earlier work
Source text: In this section, we first present in vitro data on the production of pro-inflammatory cytokines by human cells in response to LP or LTA from different origin and its neutralization by SALP. Then, we used a mouse model of acute toxemia to characterize the in vivo expression of those cytokines and to study if SALP can protect animals against lethal LP-induced sepsis.

[1] = active LP adopt non-lamellar aggregates, inactive a lamellar aggregate structure; cited from earlier work
Source text: Similar arguments regarding the bioactive conical conformation of ...

Balb/C mice [2] = experiment: Lethal toxemia in galactosamine-sensitized mice; type: in vivo, mouse; details: for physical activity / survival score of each animal: n = 3, one score per animal
Procedure: (§1) Seven-week-old female SPF-free Balb/C mice of 20 g of body weight, approximately, were purchased from Harlan Spain (Harlan Interfauna Iberica S.A., Barcelona, Spain) and randomly distributed in experimental groups (at least 4 animals per group except for the determination of lethal dose (n = 3)). Sample size was calculated based on previous results with the same animal model. Animals were housed in individually ventilated cages (5 mice per cage) bedded with hardwood bedding. Mice were provided ad libitum access to feed and water and lighting was adjusted to a 14-hour light/10-hour dark cycle. During the experiments, the condition of the animals was monitored daily every 4 hours and animals displaying persistent motor ataxia and hunched posture were euthanized.
To determine the lethal dose of FSL-1 in mice, the method of Galanos and collaborators[48] was followed with some modifications. Briefly, animals were intraperitoneally inoculated with increasing amounts of FSL-1 (50 ng, 500 ng, 5 μg and 50 μg) supplemented with 18 mg of D-galactosamine in a final volume of 200 μl of pyrogen-free saline. Galactosamine is known to sensitize mice to pro-inflammatory compounds such as LPS, thus making it possible to use lower amounts of the stimulatory drug[46]. The ability of Aspidasept® to protect mice from FSL-1 dependent lethal toxemia was assessed by co-administering FSL-1 (4 μg/mouse) with D-galactosamine (18 mg/mouse) intraperitoneally.
Results were globally analyzed by means of a Kaplan-Meier survival analysis (SPSS 15.0). When the survival plots were parallel, the data were compared by the log-rank test, whereas the Breslow-Gehan-Wilcoxon test was applied when the plots intersected.

guinea pigs = details: ref Greis et al. 40; cited from earlier work
Source text: (§2) Whereas for Gram-negative species the major inflammation- and sepsis-inducing compounds are endotoxins, the responsible compounds for endotoxin-free organisms (Gram-positive bacteria, fungi, mycoplasma, some Gram-negative bacteria) are poorly described or unknown. From the present data, however, it appears to be that LP are the decisive compounds for inflammation- a ...

rats = details: ref Hübschle et al. 39; cited from earlier work
Source text: as §2

Balb/C mice [3] = experiment: Serum cytokine response in mice after intraperitoneal inoculation; type: in vivo, mouse; details: 40 μg FSL-1 i.p.
Procedure: as §1
To study if FSL-1 had pro-inflammatory cytokine-inducing activity, animals were intraperitoneally inoculated with 40 μg of FSL-1 resuspended in 200 μl of pyrogen-free saline. Blood samples were taken both at 1.5 h or 4 h after FSL-1 challenge to measure TNFα and IL-6 levels. For this purpose, mice were anesthetised, a blood sample was obtained by the retroorbital plexus and serum cytokine levels were measured using Quantikine Immunoassays kits (R&D systems, Minneapolis, USA) following manufacturer’s instructions. Differences between groups were statistically analyzed using the Mann-Whitney U test.
To evaluate the ability of Aspidasept® to neutralize the FSL-1 induced pro-inflammatory cytokines, a group of animals received by the intraperitoneal route first 40 μg of FSL-1 and then 400 μg of the drug resuspended in 100 μl of pyrogen-free saline. This second injection was administered immediately after FSL-1 challenge at a different site of the peritoneum. TNFα and IL-6 levels were measured (see above) at 1.5 h or 4 h after challenge, respectively, coinciding with the peak of cytokine secretion, as determined in preliminary experiments.

TLR4 = experiment: IL-8 production in HEK cells transfected with a TLR4 expression vector; type: cell-based; details: for IL-8 in TLR4-transfected cells: HEK cells, ELISA
human TLR2 = experiment: IL-8 production in HEK293 cells transfected with TLR2; type: cell-based; details: HEK293, 18 hours stimulation, relatively high LP concentrations; ELISA
Procedure: For HEK cell activation, human IL-8 was determined by sandwich enzyme-linked immunosorbent assay using IL-8 cytoset from BIOSOURCE (Life Technologies GmbH, Darmstadt Germany) exactly according to the manufacturer’s protocol. For transient transfection, HEK293 cells were plated at a density of 2.5 × 10^4/well in 96-well plates in Dulbecco’s modified Eagle’s medium (PAA, Pasching, Germany). The following day, cells were transfected using Lipofectamine (Life technologies) according to the manufacturer’s protocol. Expression plasmid containing the FLAG-tagged version of human TLR2 was a kind gift from P. Nelson, Seattle, WA and subcloned into pREP9 (Life Technologies). TLR2 plasmid was used at 100 ng/transfection. After 24 hours of transfection, cells were washed and stimulated for 18 hours with indicated compounds and positive controls. Finally, supernatants were collected and the interleukin-8 content was quantified using a commercial ELISA (Life technologies).
Data shown are the mean ± S.D. of triplicate samples of one experiment and representative of two independent experiments.

macrophages = details: LP 19 KDa from M. tuberculosis; cited from earlier work
Source text: When adding the polycationic polymyxin B (PMB), a traditional AMP[43] to the shortened 19 KDa LP, a similar lack of interaction was observed.

[4] = biological target: T1, FSL-1 (fibroblast-stimulating lipopeptide) (Mycoplasma salivarium); experiment: ITC; lipopeptide 0.05 mM dispersion in the cell (1.5 ml); peptide 1 mM titrated in 3 μl aliquots every 5 min; 37 °C; MCS calorimeter; details: both partners purified
T1 construct: the first C stands for the lipidated cysteine; Shortened analogue of the 44-kDa lipoprotein LP44 of Mycoplasma salivarium, its N-terminal part; stood in the assays as an aggregate dispersion of the lipopeptide; also called LP FSL-1; source: synthetic lipopeptide, EMC microcollections GmbH (Tübingen)
T1 peptide: [Pam2Cys]GDPKHPKSF

With GCRRFKKFKKWRYRGRFWFWCFG [Pep19–12] the “inhibition of Pam3CSK4-induced cytokine (TNFα) production” value (human mononuclear cells; stimulus Pam3CSK4 1000, 100, 10 ng/ml, [LP]:[Pep] up to 1:100 weight%) was “no or only a small inhibition”.

In the case of “GKKYRRFRWKFKGKWFWFG [Pep19–4, synthetic anti-LPS peptide (SALP)]”, the “inhibition efficiency in the biological experiments” value (human MNCs) is given as “moderate”.

For “GRRYKKFRWKFKGRWFWFG [Pep19–8, synthetic anti-LPS peptide (SALP)]”, the “inhibition efficiency in the biological experiments” value (human MNCs) is given as “low”.

For Pam2CSK4, the biological activity [1] is listed as “biologically active”.

In the case of “Pam2Cys-GDPKHPKSF [FSL-1, fibroblast-stimulating lipopeptide, synthetic diacyl LP, shortened analogue of the 44-kDa LP LP44 of Mycoplasma salivarium]”, the “stimulation of MNC (TNFα induction) compared with LPS” value (shortened to “stimulation … compared with LPS”) (human mononuclear cells) is reported as “potency similar to that of LPS; also recorded: similarly active”, the “physical activity / survival score of each animal” value (“physical activity / survival score” for short) (Balb/C mice [2]; 500 ng FSL-1 i.p. + D-galactosamine 18 mg/mouse, 24 hours) is reported as “† † †” and the “physical activity / survival score” value (Balb/C mice [2]; 500 ng FSL-1 i.p. + D-galactosamine 18 mg/mouse, 48 hours) is reported as “† † †”. The “time to symptoms of sepsis (reduced motor activity, lethargy, shivering, piloerection)” value (Balb/C mice [2]; 4 μg FSL-1 i.p. + D-galactosamine 18 mg/mouse) was at most 120 min, the “physical activity / survival score” value (Balb/C mice [2]; 5 μg FSL-1 i.p. + D-galactosamine 18 mg/mouse, 24 hours) was “† † †” and the “physical activity / survival score” value (Balb/C mice [2]; 5 μg FSL-1 i.p. + D-galactosamine 18 mg/mouse, 48 hours) was “† † †”. The “physical activity / survival score” value (Balb/C mice [2]; 50 μg FSL-1 i.p. + D-galactosamine 18 mg/mouse, 24 hours) was “† † †”, the “physical activity / survival score” value (Balb/C mice [2]; 50 μg FSL-1 i.p. + D-galactosamine 18 mg/mouse, 48 hours) was “† † †” and the “amount necessary to kill 100% of the animals in 48 h (LD100)” value (Balb/C mice [2]; galactosamine-sensitized Balb/C mice, i.p., n = 3 per dose) was 500 ng/mouse. For the same molecule, the “LD100 relative to the equivalent LD100 of Salmonella minnesota LPS” value (Balb/C mice [2]; identical experimental conditions, LPS value from ref 24) was 10 times higher, the “in vivo biological activity” value (guinea pigs) was “High” and the “in vivo biological activity” value (rats) was “High”. For the same molecule, the “time of peak serum IL-6 level” value (Balb/C mice [3]; data not shown) was 4 h, the “time of peak serum TNFα level” value (Balb/C mice [3]; data not shown) was 90 min and the “serum TNFα response” value (Balb/C mice [3]; n = 4, 1.5 h) was “potent”. The “serum IL-6 response” value (Balb/C mice [3]; n = 4, 4 h) was “potent”.

In the case of “Pam2Cys-GNNDESNISFKEK [MALP-2, reference compound]”, the “stimulation … compared with LPS” value (human mononuclear cells) is reported as “similarly active”.

For “Pam3Cys-KQNVSSLDEKNSVSV [LP OspA, synthetic triacyl LP, shortened analogue of OspA from Borrelia burgdorferi]”, the “IL-8 in TLR4-transfected cells” value (TLR4) was “nearly no IL-8 signal” and the “IL-8 secreting activity in TLR-2 transfected cells” value (“IL-8 secreting activity” for short) (human TLR2) was “considerable IL-8 secreting activity”.

With “Pam3Cys-NNSGKDGNTSANSAD [LP OspC, synthetic triacyl LP, shortened analogue of OspC from Borrelia burgdorferi]” the “IL-8 in TLR4-transfected cells” value (TLR4) was “nearly no IL-8 signal” and the “IL-8 secreting activity” value (human TLR2) was “considerable IL-8 secreting activity”.

In the case of “Pam3Cys-SKKKK [Pam3CSK4, reference compound]”, the biological activity [1] is given as “biologically active”, the “activation of MNC at 1 ng/ml” value (human mononuclear cells; 1 ng/ml, data not shown) is given as “not” and the “activation of MNC at 10 ng/ml” value (human mononuclear cells; 10 ng/ml, data not shown) is given as “some activation takes place”. The “stimulation … compared with LPS” value (human mononuclear cells) was “markedly lower level than LPS” and the “IL-8 secreting activity” value (human TLR2) was “considerable IL-8 secreting activity”.

With “Pam3Cys-SQEPAAPAAEATPAG [LP H8, synthetic triacyl LP, shortened analogue of LP blp NG from Neisseria gonorrhoeae]” the “IL-8 in TLR4-transfected cells” value (TLR4) was “nearly no IL-8 signal”, the “TNFα when adding 100 ng/ml of LP” value (human mononuclear cells; data not shown) was “no detectable amounts” and the “concentration necessary to induce an observable TNFα secretion” value (human mononuclear cells; data not shown) was 10 µg/mL. The “IL-8 secreting activity” value (human TLR2) was “considerable IL-8 secreting activity”.

With “Pam3Cys-SSSNNDAAGNGAAQT [LP P6, synthetic triacyl LP, shortened analogue of protein P6 from Haemophilus influenzae]” the “IL-8 in TLR4-transfected cells at high concentration” value (TLR4; 10 μg/ml) was “significant amounts of IL-8”, the “TNFα when adding 100 ng/ml of LP” value (human mononuclear cells; data not shown) was “no detectable amounts” and the “concentration necessary to induce an observable TNFα secretion” value (human mononuclear cells; data not shown) was 10 µg/mL. For the same molecule, the “IL-8 secreting activity” value (human TLR2) was “considerable IL-8 secreting activity”.

In the case of polymyxin B, the “inhibition of the stimulation of macrophages by the shortened 19 KDa LP” value (macrophages) is listed as “lack of biological inhibition”.

B1: Pep19-2.5 (Aspidasept^®) (peptide)
peptide: GCKKYRRFRWKFKGKFWFWG-NH2
notes: designed synthetic anti-LPS peptide, 20-mer; purity >95% (HPLC, MALDI-TOF); also called SALP; synthetic anti-LPS peptide; source: synthetic peptide; batches produced by BACHEM (Bubendorf, Switzerland)
B1: binds [4].
